The record followed here is PubChem BioAssay (NCI).

Test systems include HOP-62 NSCLC; NCI-H23 lung; NCI-H522 lung; UACC-62 melanoma; HS 578T breast; SK-OV-3 ovarian; DU-145 prostate; UACC-257 melanoma; SK-MEL-28 melanoma; SF-268 CNS; UO-31 renal; KM12 colon; SF-295 CNS; COLO 205 colon; 786-0 renal; TK-10 renal.
Holding throughout (assay): inhibition of tumour cell growth, NCI panel, 48 h

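The compound was tested at five concentrations on cells cultured in 96-well plates, with a 48-hour exposure period. TGI: concentration producing complete growth inhibition.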 A value given as a limit tells only on which side of the number the result lay.

Turning to `C[C@H](CO)C1=CC(C#C[Si](C)(C)C)N(C(=O)Oc2ccccc2)c2ccccc21` (stereo partly drawn), the TGI in the assay on HOP-62 NSCLC is 19.4 µM; in the assay on NCI-H23 lung, 15.1 µM; in the assay on NCI-H522 lung, 15.7 µM; in the assay on UACC-62 melanoma, 19.9 µM; in the assay on HS 578T breast, 26.4 µM; in the assay with SK-OV-3 ovarian, 31.1 µM. Also, the TGI with DU-145 prostate is 31.7 µM; with UACC-257 melanoma, 28.3 µM; in the assay with SK-MEL-28 melanoma, 37.5 µM; in the assay with SF-268 CNS it was 27.6 µM; with UO-31 renal it was 21.4 µM; in the assay on KM12 colon, 21.8 µM. The TGI with SF-295 CNS amounted to 14.3 µM; with COLO 205 colon it was 24.3 µM; in the assay on 786-0 renal, 27.2 µM; in the assay on TK-10 renal it was 31.4 µM.
As to `O=C1CN(c2ccccc2)C(=O)CN1CCN1CC(=O)N(c2ccccc2)CC1=O`, the TGI in the assay with HOP-62 NSCLC, in the assay on NCI-H23 lung, in the assay with NCI-H522 lung, in the assay on UACC-62 melanoma, with HS 578T breast and with SK-OV-3 ovarian was more than 100 µM each time. In addition, the TGI in the assay with DU-145 prostate, in the assay with UACC-257 melanoma, in the assay on SK-MEL-28 melanoma, in the assay on SF-268 CNS, with UO-31 renal and with KM12 colon was more than 100 µM throughout. The TGI with SF-295 CNS, in the assay with COLO 205 colon, in the assay on 786-0 renal and in the assay on TK-10 renal was more than 100 µM each time.
Consider `O=C(Nc1nccs1)NS(=O)(=O)n1cnc2ccccc21`, for which the TGI with HOP-62 NSCLC, with NCI-H23 lung, with NCI-H522 lung, with UACC-62 melanoma, in the assay with HS 578T breast and with SK-OV-3 ovarian was more than 100 µM in each case. Besides, the TGI in the assay on DU-145 prostate, in the assay on UACC-257 melanoma, in the assay with SK-MEL-28 melanoma, with SF-268 CNS, with UO-31 renal and in the assay on KM12 colon was more than 100 µM each time. Also, the TGI with SF-295 CNS, with COLO 205 colon, in the assay on 786-0 renal and in the assay with TK-10 renal was more than 100 µM in each case.
